The conditions of assay [1]: cited from earlier work; for analgesic activity, in words: compared to morphine.
Assay [2] concerns pain threshold (tail-pressure). In words: Analgesic activity by the tail-pressure method (s.c.). Type of assay: in vivo, mice (Std:ddY, male). Conditions: mouse, 10 mg/10 ml at 10 ml/kg s.c., 1 hour after administration, mean ± standard error. As for the experimental part:
(1) Measurement of Analgesic Activity by the Tail-Pressure Method
Std:ddY Strain male mice (20-25 g) were fasted for one day before the experiment, and were used. After test compounds shown in Table 1 was formed to a salt with tartaric acid, this salt was dissolved in 0.9% physiological saline solutions at the rate of 10 mg/10 ml to give the test compoun d solution . As a control, 0.9% physiological saline solution was used. A tail-pressure apparatus was used in this experiments. Before the administration of test compounds, the pain threshold was measured twice at intervals of 30 minutes and those mice indicating a pain threshold of 50 to 100 mmHg were selected and used. The pain threshold of each mouse was measured at 1 hour after test compound solution mentioned above was administered at 10 ml/kg, s.c. 0.9% Physiological saline solution as a control was administered at 10 ml/kg, s.c . The results were described as an inhibition rate (%) obtained from the following equation. Cutoff level of pressure was defined to be 230 mmHg for the prevention of the damage of mouse tail.
Inhibition rate (%)=(A-B)×100/(C-B)
A: Pain threshold (mmHg) after the administration of test compound solution
B: Pain threshold (mmHg) before the administration of test compound solution
C: Cutoff pressure (230 mmHg)

For the next assay, the system named is yeast-induced fever. The assay can be described thus: Antipyretic activity on yeast-induced fever in rats. It is filed as in vivo, rats (Wistar, male). As to conditions: rat, 2 hours after administration. As for the experimental part: Measurement of Antipyretic Activity on Yeast-Induced Fever in Rats
Wistar Strain male rats (150-190 g) were fasted for one day before the experiment, and were used. Compounds of number (1) and (2) in Table 1 were formed to the tartaric acid salt and these salts were dissolved in 0.9% physiological saline solution at the rate of 10 mg/10 ml and these solution were used as test compound solution. In a control, 0.9% physiological saline solution was used. After rat rectal temperature was measured, 1 ml/100 g of body weight of 7.5% yeast/0.9% physiological saline solution was injected s.c. at dorsal position. Then, rat rectal temperature was measured at 4 hour after the injection of yeast and rats showing the increase rectal temperature by 1 degree or more were selected and used. Test compound solution was administered s.c. at 5 hours after the injection of yeast. The rectal temperature was measured 2 hours after the administration of test compound solution. The results were described with the difference between the rectal temperature before and after the administration of test compound solution.

Assay [3] concerns carrageenin-induced paw edema. The assay can be described thus: Antiinflammatory activity by the carrageenin-induced hind paw edema. It is filed as in vivo, mice (Std:ddY, male). As to conditions: mouse, 30 mg/kg p.o., mean ± standard error, n = 6. As for the experimental part:
Measurement of Antiinflammatory Activity by the Carrageenin-Induced Hind Paw Edema
Std:ddY Strain male mice (20-25 g) were fasted for one day before the experiment, and were used. After test compounds shown in Table 1 was formed to a salt with tartaric acid, this salt was dissolved in sterilized and distilled water at the rate of 30 mg/10 ml to give the test compound solution. As a control, sterilized and distilled water was used. One hour after the oral administration of test compound solutions, 25 μl of λ-carrageenin suspended in 0.9% physiological saline solution (0.5 mg/25 μl) was injected s.c. under the plantar surface of the right hind paw of a mouse and 25 μl of 0.9% physiological saline solution was injected s.c. under the plantar surface of the left hind paw of the same mouse. Three hours and five hours after carrageenin injection, the […] of the paw was measured with a dial gauge calliper. To the control group, One hour after the oral administration of sterilized and distilled water at the rate of 10 ml/kg, 25 μl of λ-carrageenin (0.5 mg/25 μl) suspended in 0.9% physiological saline solution was injected s.c. under the plantar surface of the right hind paw of a mouse and 25 μl of 0.9% physiological saline solution was injected s.c. under the plantar surface of the left hind paw of the same mouse and the later operation was done in the same manner as in the test compound dosing group mentioned above. The results were described as a swelling rate (%) obtained from the following equation.
Swelling rate (%)=(R-L)×100/L
R: the thickness of the right hind paw
L: the thickness of the left hind paw
(Carrageenan injected into the paw causes an acute inflammation.)

The subject of assay [4] is nociceptive response (licking). The assay can be described thus: Analgesic activity by the hot-plate method. As to conditions: mouse, 52° C. plate, solution 10 mg/10 ml, mean ± standard error. It is filed as in vivo, mice (Std:ddY, male). As for the experimental part: Measurement of Analgesic Activity by the Hot-Plate Method
Std:ddY Strain male mice (20-25 g) were fasted for one day before the experiment, and were used. After compounds shown in Table 1 were formed to the tartaric acid salts, these compounds were dissolved in 0.9% physiologocal saline solution at the rate of 10 mg/10 ml, respectively and these solution were used as test compound solution. In a control, 0.9% physiological saline solution was used. Mice were placed on a cyrindric hot plate (diameter: 22 cm, height: 11 cm) made of copper which was fixed in a water bath adjusted to 52° C. so that each animal's four paws came into contact with the plate and the time taken to show the nociceptive response (licking) as an index of pain was measured. Mice showing response latency above 25 seconds were excluded from the experiment. To prevent a burn damage of mouse tissue by heating, cutoff time of 50 seconds was defined. The results were described as an inhibition rate (%) obtained from the following equation.
Inhibition rate (%)=(A-B)×100/(50-B)
A: Response latency (seconds) after the administration of test compound solution
B: Response latency (seconds) before the administration of test compound solution
For orientation: In hot-plate and tail-flick tests a longer latency is read as antinociception.

As to `CC(=O)Oc1ccccc1C(=O)O` [aspirin], in assay [1], the “analgesic activity, in words” value is reported as “weak analgesic activity compared to morphine”; the “activity in tail pressure methods and hot plate methods, in words” value was “no remarkable activity in tail pressure methods and hot plate methods”.

Turning to `COCC12CN(C)C3C4C(OC)C1C3(C(OC)CC2O)C1CC2(O)C(OC)C(OC(C)=O)C4(O)C1C2OC(=O)c1ccc(Cl)cc1` (stereo not drawn) [(1), 15-O-acetyl-14-O-p-chlorobenzoylmesaconine], in assay [2], the “Inhibition rate (tail-pressure method)” value came to 48 ± 12%. The “Change of rectal temperature” value in the assay with yeast-induced fever (1 mg/kg s.c.) is 1.3 ± 0.1 °C; with yeast-induced fever (3 mg/kg s.c.), 0.2 ± 0.1 °C; in the assay on yeast-induced fever (10 mg/kg s.c.) it was 0.2 ± 0.2 °C. Moreover, the Swelling rate in assay [3] (3 hour) worked out at 49 ± 2%; in assay [3] (5 hour) it was 52 ± 6%. Besides, the “Inhibition rate (hot-plate method)” value in assay [4] was found to be 52 ± 12%.

On to “15-O-acetyl-8-deoxy-16-epi-14-O-p-chlorobenzoylmesaconine [(9)]”, for which, in assay [2], the “Inhibition rate (tail-pressure method)” value was 31 ± 12%. The values for the Swelling rate in assay [3] (3 hour) and in assay [3] (5 hour) were 44 ± 7% and 56 ± 7%, respectively. Also, the “Inhibition rate (hot-plate method)” value in assay [4] amounted to 46 ± 7%.

Consider “15-O-acetyl-8-deoxy-16-epi-14-O-p-chlorobenzoylaconine [(10)]”, for which, in assay [2], the “Inhibition rate (tail-pressure method)” value is on record as 23 ± 7%. Further, the Swelling rate in assay [3] (3 hour) is reported as 49 ± 6%; in assay [3] (5 hour), 49 ± 11%. Besides, the “Inhibition rate (hot-plate method)” value in assay [4] worked out at 40 ± 10%.

For the compound `COCC12CN(C)C3C4C(OC)C1C3(C(OC)CC2OC(C)=O)C1CC2(O)C(OC)C(OC(C)=O)C4(O)C1C2OC(=O)c1ccc(Cl)cc1` (stereo not drawn) [(5), 3,15-di-O-acetyl-14-O-p-chlorobenzoylmesaconine], in assay [2], the “Inhibition rate (tail-pressure method)” value worked out at 40 ± 10%. In addition, the values for the Swelling rate in assay [3] (3 hour) and in assay [3] (5 hour) were 43 ± 10% and 58 ± 10%, respectively. Also, the “Inhibition rate (hot-plate method)” value in assay [4] was determined as 37 ± 10%.

Take “de-N-ethyl-N-propyl-15-O-acetyl-8-deoxy-16-epi-14-O-p-chlorobenzoylaconine [(11)]”: the “Inhibition rate (tail-pressure method)” value in assay [2] was determined as 25 ± 8%. Further, the Swelling rate in assay [3] (3 hour) was found to be 50 ± 5%; in assay [3] (5 hour) it was 52 ± 9%. Further, in assay [4], the “Inhibition rate (hot-plate method)” value is 34 ± 9%.

For the compound “15-O-acetyl-8-deoxy-14-O-p-chlorobenzoylmesaconine [(7)]”, the “Inhibition rate (tail-pressure method)” value in assay [2] stood at 35 ± 10%. Further, the Swelling rate in assay [3] (3 hour) amounted to 43 ± 8%; in assay [3] (5 hour), 48 ± 8%. The “Inhibition rate (hot-plate method)” value in assay [4] was 49 ± 11%.

Take `CCN1CC2(COC)C(O)CC(OC)C34C5CC6(O)C(OC)C(O)C(O)(C5C6OC(=O)c5ccc(Cl)cc5)C(C(OC)C23)C14` (stereo not drawn) [14-O-p-chlorobenzoylaconine, reference compound]: the “Inhibition rate (tail-pressure method)” value in assay [2] was determined as 10 ± 4%. For the same compound, the “analgesic/anti-inflammatory activity relative to earlier compounds, in words” value in assay [1] (JP, A, H5-17448) is “exhibits activity superior to that of compounds having a p-chlorobenzoyloxy group bonded to the position 14 carbon atom of the aconitine chemical structure”. Further, the Swelling rate in assay [3] (3 hour) is reported as 57 ± 8%; in assay [3] (5 hour), 63 ± 9%. For the same compound, the “Inhibition rate (hot-plate method)” value in assay [4] was determined as 17 ± 7%.

Turning to `COc1ccc2c(c1)c(CC(=O)O)c(C)n2C(=O)c1ccc(Cl)cc1` [indomethacin], in assay [1], the “analgesic activity, in words” value was “weak analgesic activity compared to morphine”; the “activity in tail pressure methods and hot plate methods, in words” value is “no remarkable activity in tail pressure methods and hot plate methods”.

Take `COCC12CCC(OC)C34C5CC6(O)C(OC)C(OC(C)=O)C(O)(C5C6OC(=O)c5ccc(Cl)cc5)C(C(OC)C13)C4N(C)C2` (stereo not drawn) [(6), 15-O-acetyl-14-O-p-chlorobenzoylhypaconine]: the “Inhibition rate (tail-pressure method)” value in assay [2] came to 27 ± 11%. In addition, the Swelling rate in assay [3] (3 hour) was 46 ± 5%; in assay [3] (5 hour) it was 60 ± 5%. In assay [4], the “Inhibition rate (hot-plate method)” value is reported as 46 ± 8%.

Take `CCCN1CC2(COC)C(O)CC(OC)C34C5CC6(O)C(OC)C(OC(C)=O)C(O)(C5C6OC(=O)c5ccc(Cl)cc5)C(C(OC)C23)C14` (stereo not drawn) [(3), de-N-ethyl-N-propyl-15-O-acetyl-14-O-p-chlorobenzoylaconine]: the “Inhibition rate (tail-pressure method)” value in assay [2] is on record as 36 ± 10%. Besides, the results for the Swelling rate in assay [3] (3 hour) and in assay [3] (5 hour) were 42 ± 10% and 54 ± 8%, respectively. In addition, the “Inhibition rate (hot-plate method)” value in assay [4] was 39 ± 11%.

Turning to “15-O-acetyl-8-deoxy-14-O-p-chlorobenzoylaconine [(8)]”, the “Inhibition rate (tail-pressure method)” value in assay [2] is 26 ± 7%. The figures for the Swelling rate in assay [3] (3 hour) and in assay [3] (5 hour) were 41 ± 5% and 55 ± 8%, respectively. Further, the “Inhibition rate (hot-plate method)” value in assay [4] was 48 ± 8%.

These data come from patent US5770604A, “Aconitine compound and an antipyretic/analgesic/anti-inflammatory agent” (priority 1994, dated 1998).
